Among the data in patent US20260265256A1 (IMPACT THERAPEUTICS (SHANGHAI), INC., priority 2023, published 2026) are IC50 values, retold here.

Experiment [1] relates to MDA-MB-436 cells. Description: Growth inhibition assay against BRCA mutant human breast cancer MDA-MB-436 cell line (CCK-8, 7 days). The class given is cell-based. To be noted: 168 h, MDA-MB-436, 7 days, read-out: IC50 (nM), proliferation of human breast cancer cells MDA-MB-436. The procedure: The cells were cultured in complete medium (DMEM medium+10% FBS+Insulin+glutathione). When the confluence reached about 80%, cells were digested and gently dispensed from the bottom of the dish with a 1 mL pipette. Cell suspension was collected and centrifuged at 500 rpm for 3 min. The supernatant was discarded, and the cell pellet were re-suspended in complete medium. The cells were seeded into a culture dish at an appropriate proportion, and then cultured in a 5% CO2 incubator at 37° C. The assay was carried out when the cells were in optimum condition and the confluence was reached 80%. Cells in the logarithmic growth phase were taken to centrifugate, and the culture supernatant was removed. The cells were resuspended in refresh complete medium and counted. The resuspended cells were seeded at 3000/well in a 96-well plate and incubated at 37° C., 5% CO2 incubator overnight. […] The solution was mixed by oscillation. 0.10% DMSO was used as the control.
The next day, the 96-well plate inoculated with cells was taken out from the incubator, and the culture supernatant was removed. Then fresh medium of 195 uL/well and 5 μL/well of 40× test compound solution as mentioned above were added into the 96 well plate, respectively. Finally, the plate was incubated for 7 days in a 37° C. 5% CO2 incubator. The medium containing compound was changed on the fourth day. After 7 days, 20 μL of CCK-8 was added to each well and shaken gently, then was cultured for 4 hours. The plate was shaken for 5 min after incubation, the absorbance values of 450 nm or 650 nm wavelengths were recorded respectively (OD=absorbance value of 450 nm−absorbance value of 650 nm) by using the multifunction readout instrument.
Data were analyzed by software GraphPad Prism 6.0. The inhibitory activity of compounds on cell proliferation was plotted using cell survival rate against the compound concentration as coordinates. Cell survival rate %=(ODcompound−ODbackground)/(ODDMSO−ODbackground)×100.
Table 2 summarizes the inhibitory effect data (IC50) of the compounds on the proliferation of human breast cancer cells MDA-MB-436.

Experiment [2] concerns the target recombinant poly(ADP-ribose) polymerase 2 (PARP2) (Homo sapiens, UniProt Q9UGN5). Description: PARP2 chemiluminescent assay. The class given is biochemical. As to conditions: PARP2 enzyme activity, chemiluminescence, 40 ng enzyme/well. How it is done:
The solution of recombinant poly(ADP-ribose) polymerase 1 and 2 (PARP1 and PARP2) (40 ng enzyme/well) and the compounds to be tested were mixed, respectively. The solutions were added to a 96-well plate coated with histone mixture, incubated at room temperature for 1 h, then 50 μL 0.3 ng/mL Streptavidin-HRP was added to each well. The plates were incubated for 30 minutes at room temperature. Finally, the plates were treated with streptavidin-HRP followed by addition of the ELISA ECL substrate to produce chemiluminescence that can be measured using a chemiluminescence reader. Inhibition of the tested compound to PARP1/2 enzyme activity was calculated according to the following formula. [formula] IC50 value is obtained by fitting the s-shaped dose response curve equation by using XL Fit software.

For experiment [3], the target named is T1, PDE3A (Homo sapiens, UniProt Q14432).
T1 construct: purchased Sino Biological 11908-H20B1
Description: PDE3A fluorescence polarization (FP) assay. It counts as biochemical. As to conditions: 2 nM PDE3A, 0.2 μM FAM-cAMP, read-out: IC50 (μM), PDE3A enzyme activity. How it is done:
A PDE3A fluorescence polarization (FP) assay in a multi-step format was performed using black, round bottom 384-well plates (Corning, 4514). The testing compounds were serially diluted from stock solutions to 11 concentrations with a 3-fold dilution factor using DMSO. Fifty nL of compound dilutions was mixed with 5 μL of reaction buffer (10 mM Tris-HCl, pH 7.2, 10 mM MgCl2, 0.05% NaN3, 0.1% phosphate-free BSA) containing 0.2 μM FAM-cAMP (BPS, 60200) and 2 nM PDE3A (Sino Biological, 11908-H20B1) enzyme, and incubated for 60 min at 25° C. Afterwards, 15 μL binding agent mixture (Molecular Devices, R8124) was added to each well and the plate was incubated for 60 min at 25° C. The plate was loaded to a BMG PHERAstar FSX to read Fluorescence Polarization (FP) values at a setting of: Ex: 485 nm and Em: 520 nm. Emission light intensity with polarizers parallel (Em|) and emission light intensity with polarizers perpendicular (Em⊥) were recorded. The Polarization (mP) values were calculated using the following formula: mP=(SignalEm|−SignalEm⊥)/(SignalEm|+SignalEm⊥).
Data analysis: • 1) The inhibition % of a compound dose is calculated as:
[formula] • wherein mPMin and mPMax refer to the polarization readings in the condition of substrate only and substrate+enzyme, respectively. • 2) The IC50 values were calculated from non-linear curve fitting using following regression equation using a commercial curve fitting software GraphPad Prism 9.2.0.
wherein X refers to Log of compound concentration and Y refers to % Inhibition.
Table 3 summarize the inhibitory effects of compounds on PDE3A enzyme activity (IC50).
(In general: Fluorescence polarisation rises when a labelled molecule tumbles more slowly, as on binding a larger partner.)

T1 sequence (Q14432 669-1141 limits assumed): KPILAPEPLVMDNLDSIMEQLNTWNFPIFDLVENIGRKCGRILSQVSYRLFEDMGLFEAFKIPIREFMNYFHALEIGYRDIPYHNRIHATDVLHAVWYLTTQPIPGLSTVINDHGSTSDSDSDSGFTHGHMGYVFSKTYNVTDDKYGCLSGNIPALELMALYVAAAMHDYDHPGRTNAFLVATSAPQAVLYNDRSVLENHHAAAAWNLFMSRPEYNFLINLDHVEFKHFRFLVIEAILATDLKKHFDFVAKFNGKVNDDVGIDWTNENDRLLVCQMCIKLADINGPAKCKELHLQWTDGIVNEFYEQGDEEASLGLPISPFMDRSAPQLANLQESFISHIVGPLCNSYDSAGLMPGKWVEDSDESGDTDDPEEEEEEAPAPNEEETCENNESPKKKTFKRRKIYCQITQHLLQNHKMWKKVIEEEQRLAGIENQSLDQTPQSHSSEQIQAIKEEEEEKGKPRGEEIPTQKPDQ
recombinant poly(ADP-ribose) polymerase 2 (PARP2), sequence (Q9UGN5 whole entry): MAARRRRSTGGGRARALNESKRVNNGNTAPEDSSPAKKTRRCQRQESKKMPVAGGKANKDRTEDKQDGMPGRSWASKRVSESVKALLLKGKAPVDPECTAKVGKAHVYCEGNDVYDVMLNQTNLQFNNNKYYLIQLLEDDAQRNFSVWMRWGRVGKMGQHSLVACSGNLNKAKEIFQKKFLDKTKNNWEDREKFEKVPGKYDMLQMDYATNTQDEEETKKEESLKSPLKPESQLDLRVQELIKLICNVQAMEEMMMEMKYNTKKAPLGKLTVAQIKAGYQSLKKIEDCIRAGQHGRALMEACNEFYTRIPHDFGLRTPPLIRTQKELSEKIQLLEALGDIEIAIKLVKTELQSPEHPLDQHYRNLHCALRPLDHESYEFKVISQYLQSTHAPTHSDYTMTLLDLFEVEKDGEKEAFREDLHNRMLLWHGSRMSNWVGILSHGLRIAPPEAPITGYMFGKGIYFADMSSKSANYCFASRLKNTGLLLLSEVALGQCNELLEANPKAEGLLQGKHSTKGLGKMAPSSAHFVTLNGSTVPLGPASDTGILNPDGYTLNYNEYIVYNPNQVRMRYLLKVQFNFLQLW

As for `CNC(=O)c1ccc(-n2ncc3c2CN(Cc2ccc4c([nH]c(=O)c5c(C)cnn54)c2F)C3)cn1` [Example 1-2, 5-(5-((6-fluoro-3-methyl-4-oxo-4,5-dihydropyrazolo[1,5-a]quinoxalin-7-yl)methyl)-5,6-dihydropyrrolo[3,4-c]pyrazol-1(4H)-yl)-N-methylpicolinamide], the results for the IC50 in experiment [1], in experiment [2] and in experiment [3] were over 100 nM, over 1000 nM and over 25 µM, respectively.

In the case of `CCNC(=O)c1ccc(-n2cc3c(n2)CN(Cc2ccc4c([nH]c(=O)c5c(C)cnn54)c2F)C3)cn1` [Example 6, 5-(5-((6-fluoro-3-methyl-4-oxo-4,5-dihydropyrazolo[1,5-a]quinoxalin-7-yl)methyl)-5,6-dihydropyrrolo[3,4-c]pyrazol-2(4H)-yl)-N-ethylpicolinamide], the IC50 in experiment [1] is 2.07 nM; in experiment [2] it was over 10000 nM; in experiment [3], over 30 µM.

Consider `CNC(=O)c1ccc(-n2cc3c(n2)CN(Cc2ccc4c([nH]c(=O)c5c(F)cnn54)c2F)C3)cn1` [Example 13, 5-(5-((3,6-difluoro-4-oxo-4,5-dihydropyrazolo[1,5-a]quinoxalin-7-yl)methyl)-5,6-dihydropyrrolo[3,4-c]pyrazol-2(4H)-yl)-N-methylpicolinamide], for which the IC50 in experiment [1] is 0.99 nM; in experiment [2] it was 42 nM; in experiment [3], over 30 µM.

On to `CNC(=O)c1ccc(-n2cc3c(n2)CN(Cc2ccc4c([nH]c(=O)c5c(F)cnn54)c2F)C3)c(F)n1` [Example 15, 5-(5-((3,6-difluoro-4-oxo-4,5-dihydropyrazolo[1,5-a]quinoxalin-7-yl)methyl)-5,6-dihydropyrrolo[3,4-c]pyrazol-2(4H)-yl)-6-fluoro-N-methylpicolinamide], for which the IC50 in experiment [1] is 1.36 nM; in experiment [2] it was 373 nM; in experiment [3], over 30 µM.

Take `CNC(=O)c1ccc(-n2cc3c(n2)CN(Cc2ccc4c([nH]c(=O)c5c(F)cnn54)c2F)C3)c(Cl)n1` [Example 16, 5-(5-((3,6-difluoro-4-oxo-4,5-dihydropyrazolo[1,5-a]quinoxalin-7-yl)methyl)-5,6-dihydropyrrolo[3,4-c]pyrazol-2(4H)-yl)-6-chloro-N-methylpicolinamide]: the figures for the IC50 in experiment [1], in experiment [2] and in experiment [3] were 5.65 nM, 1190 nM and over 30 µM, respectively.

For the compound `CCNC(=O)c1ccc(-n2cc3c(n2)CN(Cc2ccc4c([nH]c(=O)c5c(F)cnn54)c2F)C3)c(F)n1` [Example 19, 5-(5-((3,6-difluoro-4-oxo-4,5-dihydropyrazolo[1,5-a]quinoxalin-7-yl)methyl)-5,6-dihydropyrrolo[3,4-c]pyrazol-2(4H)-yl)-N-ethyl-6-fluoropicolinamide], the IC50 in experiment [1] is 1.57 nM; in experiment [2] it was over 10000 nM; in experiment [3], over 30 µM.

Consider `CNC(=O)c1ccc(-n2cc3c(n2)CN(Cc2ccc4c([nH]c(=O)c5occc54)c2F)C3)cn1` [Example 28, 5-(5-((6-fluoro-4-oxo-4,5-dihydrofuro[2,3-c]quinolin-7-yl)methyl)-5,6-dihydropyrrolo[3,4-c]pyrazol-2(4H)-yl)-N-methylpicolinamide], for which the IC50 in experiment [1] amounted to 0.76 nM; in experiment [2], 119 nM; in experiment [3], 29.4 µM.

`CNC(=O)c1ccc(-n2cc3c(n2)CN(Cc2ccc4c([nH]c(=O)c5nn(C)cc54)c2F)C3)cn1` [Example 29, 5-(5-((6-fluoro-2-methyl-4-oxo-4,5-dihydro-2H-pyrazolo[3,4-c]quinolin-7-yl)methyl)-5,6-dihydropyrrolo[3,4-c]pyrazol-2(4H)-yl)-N-methylpicolinamide]: the values for the IC50 in experiment [1], in experiment [2] and in experiment [3] were 1.57 nM, over 10000 nM and over 30 µM, respectively.

Regarding `CNC(=O)c1ccc(-n2cc3c(c2)CN(Cc2ccc4c([nH]c(=O)c5c(C)cnn54)c2F)C3)cn1` [Example 39, 5-(5-((6-fluoro-3-methyl-4-oxo-4,5-dihydropyrazolo[1,5-a]quinoxalin-7-yl)methyl)-5,6-dihydropyrrolo[3,4-c]pyrrol-2(4H)-yl)-N-methylpicolinamide], the IC50 in experiment [1] is 1.82 nM; in experiment [3], over 30 µM.

Consider `CNC(=O)c1ccc(-c2nc3c(s2)CN(Cc2ccc4c([nH]c(=O)c5c(F)cnn54)c2F)C3)cn1` [Example 42, 5-(5-((3,6-difluoro-4-oxo-4,5-dihydropyrazolo[1,5-a]quinoxalin-7-yl)methyl)-5,6-dihydro-4H-pyrrolo[3,4-d]thiazol-2-yl)-N-methylpicolinamide], for which the results for the IC50 in experiment [1], in experiment [2] and in experiment [3] were 6.04 nM, 118 nM and over 30 µM, respectively.

As for `CNC(=O)c1ccc(-n2cc3c(c2)CN(Cc2ccc4c([nH]c(=O)c5c(F)cnn54)c2F)C3)cn1` [Example 48, 5-(5-((3,6-difluoro-4-oxo-4,5-dihydropyrazolo[1,5-a]quinoxalin-7-yl)methyl)-5,6-dihydropyrrolo[3,4-c]pyrrol-2(4H)-yl)-N-methylpicolinamide], the IC50 was 0.38 nM in experiment [1], 48 nM in experiment [2] and over 30 µM in experiment [3].

Take `CNC(=O)c1ccc(-n2cc3c(n2)CN(Cc2ccc4c([nH]c(=O)n5cc(C)nc45)c2F)C3)cn1` [Example 49, 5-(5-((7-fluoro-2-methyl-5-oxo-5,6-dihydroimidazo[1,2-c]quinazolin-8-yl)methyl)-5,6-dihydropyrrolo[3,4-c]pyrazol-2(4H)-yl)-N-methylpicolinamide]: the figures for the IC50 in experiment [1] and in experiment [3] were 0.71 nM and over 30 µM, respectively.

On to `CNC(=O)c1ccc(-n2cc3c(n2)CN(Cc2ccc4c([nH]c(=O)n5cc(C)nc45)c2F)C3)c(F)n1` [Example 51, 6-fluoro-5-(5-((7-fluoro-2-methyl-5-oxo-5,6-dihydroimidazo[1,2-c]quinazolin-8-yl)methyl)-5,6-dihydropyrrolo[3,4-c]pyrazol-2(4H)-yl)-N-methylpicolinamide], for which the IC50 was 1.51 nM in experiment [1], over 10000 nM in experiment [2] and over 30 µM in experiment [3].

With `CCNC(=O)c1ccc(-n2cc3c(n2)CN(Cc2ccc4c([nH]c(=O)n5cc(C)nc45)c2F)C3)c(F)n1` [Example 52, N-ethyl-6-fluoro-5-(5-((7-fluoro-2-methyl-5-oxo-5,6-dihydroimidazo[1,2-c]quinazolin-8-yl)methyl)-5,6-dihydropyrrolo[3,4-c]pyrazol-2(4H)-yl)picolinamide], the IC50 was 0.92 nM in experiment [1] and over 30 µM in experiment [3].

With `CNC(=O)c1ccc(-n2cc3c(n2)CN(Cc2ccc4c([nH]c(=O)c5occc54)c2F)C3)c(F)n1` [Example 54, 6-fluoro-5-(5-((6-fluoro-4-oxo-4,5-dihydrofuro[2,3-c]quinolin-7-yl)methyl)-5,6-dihydropyrrolo[3,4-c]pyrazol-2(4H)-yl)-N-methylpicolinamide], the IC50 in experiment [1] is 1.47 nM; in experiment [2], 255 nM; in experiment [3] it was over 30 µM.

As for `CNC(=O)c1ccc(N2CC3=C(CN(Cc4ccc5c([nH]c(=O)c6c(F)cnn65)c4F)C3)C2)c(F)n1` [Example 58], the IC50 in experiment [1] was found to be 2.97 nM; in experiment [3] it was 2.41 µM.
